Measurements from PubChem BioAssay AID1591 (Sanford-Burnham Center for Chemical Genomics, 2009).

System: human plasma stability, LC/MS/MS, 180 min
Assay: human plasma degradation, percent remaining – biochemical, LC/MS/MS, 180 min, dry powder, ADME assay, late-stage follow-up (AID 1591)
Settings: at 1 µM; active compounds read low

percent remaining: 82.6%
Structure (SMILES): C=CCn1c(SCC(=O)c2ccc(O)c(O)c2)nnc1-c1ccccc1OC
